The values that follow are results of earlier work, collected in patent publication US20100055173A1, “RELEASE OF STATINS IN THE INTESTINE” (priority 2006, published 2010).

SMILES strings stand for the structures. Like-named read-outs stand apart in the source and are kept apart here.

The target in one data set is T1, HMG-CoA reductase (Homo sapiens, UniProt P04035).
T1 sequence (P04035 1-888): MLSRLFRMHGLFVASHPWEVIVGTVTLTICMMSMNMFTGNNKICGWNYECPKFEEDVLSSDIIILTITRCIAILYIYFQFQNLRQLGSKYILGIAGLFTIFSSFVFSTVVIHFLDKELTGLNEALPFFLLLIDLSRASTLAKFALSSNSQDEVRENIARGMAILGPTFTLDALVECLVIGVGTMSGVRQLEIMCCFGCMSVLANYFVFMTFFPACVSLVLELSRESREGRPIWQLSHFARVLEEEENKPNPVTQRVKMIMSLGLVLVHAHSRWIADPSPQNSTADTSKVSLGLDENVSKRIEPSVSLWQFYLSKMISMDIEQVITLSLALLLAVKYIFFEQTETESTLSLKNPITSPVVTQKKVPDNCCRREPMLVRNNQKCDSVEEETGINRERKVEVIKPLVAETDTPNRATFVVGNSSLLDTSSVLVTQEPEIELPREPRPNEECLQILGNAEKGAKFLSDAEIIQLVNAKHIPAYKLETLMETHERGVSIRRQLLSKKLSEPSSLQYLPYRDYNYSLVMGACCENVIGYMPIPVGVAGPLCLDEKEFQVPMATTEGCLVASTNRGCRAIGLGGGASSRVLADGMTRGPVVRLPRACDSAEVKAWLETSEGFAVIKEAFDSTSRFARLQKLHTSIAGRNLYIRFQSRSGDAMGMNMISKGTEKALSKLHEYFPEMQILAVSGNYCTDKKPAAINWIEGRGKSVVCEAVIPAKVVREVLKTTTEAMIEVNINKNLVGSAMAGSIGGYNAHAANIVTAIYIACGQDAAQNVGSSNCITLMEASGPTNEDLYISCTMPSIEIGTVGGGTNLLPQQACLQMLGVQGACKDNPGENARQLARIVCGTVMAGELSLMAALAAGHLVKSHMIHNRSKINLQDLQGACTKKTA
The conditions noted are these: considering the beta-hydroxy acid form as the drug.

The next data set has as its system plasma proteins. The conditions noted are these: primarily to albumin.

For the compound `CCC(C)(C)C(=O)OC1CC(C)(O)C=C2C=CC(C)C(CCC3CC(O)CC(=O)O3)C21` (stereo not drawn) [6-beta-hydroxy simvastatin], the “HMG-CoA reductase activity retained” value on HMG-CoA reductase was around 50%.

Turning to `CCC(C)(C)C(=O)O[C@H]1C[C@@H](CO)C=C2C=C[C@H](C)[C@H](CC[C@@H]3C[C@@H](O)CC(=O)O3)[C@H]21` [6-beta-hydroxymethyl, 6-beta-hydroxymethyl simvastatin], the “HMG-CoA reductase activity retained” value on HMG-CoA reductase was “approximately 40%”.

For the compound `CCC(C)(C)C(=O)O[C@H]1C[C@@H](C)C=C2C=C[C@H](C)[C@H](CC[C@@H](O)C[C@@H](O)CC(=O)O)[C@H]21` [open hydroxyl acid form, β-hydroxyacid-simvastatin], the “bound to plasma proteins” value with plasma proteins is 94.5%.

On to `CCC(C)(C)C(=O)O[C@H]1C[C@@H](C)C=C2C=C[C@H](C)[C@H](CC[C@@H]3C[C@@H](O)CC(=O)O3)[C@H]21` [simvastatin], for which the “bound to plasma proteins” value with plasma proteins was “More than 98%”; in the data set with plasma proteins (listed as Simvastatin), “more than 95%”.
